Measurements taken from patent US10889566B2, “Derivatives and composition of quinoline and naphthyridine” (CHULABHORN FOUNDATION, priority 2017, dated 2021).
≈ marks a conversion by molar mass, not a printed value. Where a name gives a salt, the structure may show the parent alone. Values belong to the molecule of their own block, whether it stands above or below them.

Key:
[1] = test system: acute lymphoblastic leukemia (MOLT-3); test: cells; details: for IC50 (μg/mL) MOLT-3: MOLT-3 (Acute lymphoblastic leukemia), mean ± standard error, triplicate
Protocol: (§1) Background control wells contained the same volume of the complete culture medium. […] Samples at various concentrations were added to the microplate, which was incubated for another 48 h. Cell viability was determined by staining with MTT assay [3(4,5-dimethylthiazol-2-yl)-2-5diphenyl tetrazolium bromide (Sigma-Aldrich, St. Louis, Mo., USA)]. The reagent was dissolved in phosphate buffered saline at 5 mg/mL and filtered to sterilize and remove the small amount of insoluble residue present in some batches of MTT. […] Subsequently, dimethyl sulfoxide (Merck, Germany) (100 μL) was added to dissolve the resulting formazan by using sonication. The plates were read on a microplate reader (Molecular Devices, CA, USA). OD was measured at testing wavelength of 550 nm and reference wavelength of 650 nm.
XTT assay (3′-[1-[(phenylamino)-carbonyl]-3,4-tetrazolium]-bis(4-methoxy-6-nitro)benzene-sulfonic acid hydrate) for suspension cells was performed for acute lymphoblastic leukemia (MOLT-3).

[2] = test system: cholangiocarcinoma; test: cells; details: for IC50 (μg/mL) HuCCA-1: HuCCA-1 (Cholangiocarcinoma), mean ± standard error, triplicate
Protocol: as §1

[3] = test system: hepatocarcinoma; test: cells; details: for IC50 (μg/mL) HepG2: HepG2 (Hepatocarcinoma), mean ± standard error, triplicate; for IC50: Homo sapiens, HepG2, read-out: IC50 (μg/mL) HepG2
Protocol: as §1

[4] = test system: lung carcinoma; test: cells; details: for IC50 (μg/mL) A549: A549 (Lung carcinoma), mean ± standard error, triplicate
Protocol: as §1

[5] = biological target: HIV-1 RT (Human immunodeficiency virus type 1 group M subtype B, UniProt P04585); test: In vitro HIV-1 reverse transcriptase (HIV-1 RT) kit assay; assay type: biochemical; details: for inhibition at 1 µM: read-out: Inhibition rate (%) (HIV-RT kit assay) (1 μM)
Protocol: In Vitro HIV-1 Reverse Transcriptase (HIV-1 RT) Kit Assay
The HIV-RT inhibition assay was performed using an RT assay kit (Roche) according to the protocol of the kit. […] After 1 h of incubation at 37° C., the reaction mixture was transferred to a streptavidine-coated microtiter plate (MTP). Biotin-labeled dNTPs were incorporated in the template, because of the activity of RT bound to steptavidine. The unbound dNTPs were washed with wash buffer, and antidigoxigenin-peroxidase (anti-DIG-POD) was added to the MTP. The digoxigenin-labeled dNTPs incorporated in the template was bound to the anti-DIG-POD antibody. The unbound anti-DIG-POD was washed, and the peroxide substrate (ABST) was added to the MTP. A colored reaction product was produced during the cleavage of the substrate catalyses with a peroxide enzyme. […] The resulting color intensity was directly proportional to the actual RT activity. The percentage inhibitory activity of the RT inhibitors was calculated by comparing it to that of the sample without an inhibitor.

[6] = test system: BxPC-3 pancreatic cancer cells; details: read-out: in vitro EC50; cited from earlier work

SMILES: Cc1cc(C=O)cc(C)c1Oc1cc(Oc2c(C)cc(C=O)cc2C)c2ccccc2n1 [Compound 1]
IC50 (μg/mL) MOLT-3 [1]: 2.62 ± 0.30 µg/mL (≈ 6.16 µM) | IC50 (μg/mL) HuCCA-1 [2]: 4.71 ± 0.30 µg/mL (≈ 11.1 µM) | IC50 (μg/mL) HepG2 [3]: 21.55 ± 5.23 µg/mL (≈ 50.6 µM) | IC50 (μg/mL) A549 [4]: 16.37 ± 0.56 µg/mL (≈ 38.5 µM) | Inhibition rate (%) (HIV-RT kit assay) (1 μM) [5]: 42.08%

SMILES: Cc1cc(C=O)cc(C)c1Oc1cc(Nc2ccc(C#N)cn2)nc2ccccc12 [Compound 4]
IC50 (μg/mL) MOLT-3 [1]: 4.98 ± 0.43 µg/mL (≈ 12.6 µM) | IC50 (μg/mL) HuCCA-1 [2]: 49.5 ± 0.71 µg/mL (≈ 125 µM) | IC50 (μg/mL) HepG2 [3]: 36.53 ± 4.65 µg/mL (≈ 92.6 µM) | IC50 (μg/mL) A549 [4]: 42.44 ± 0.48 µg/mL (≈ 108 µM) | Inhibition rate (%) (HIV-RT kit assay) (1 μM) [5]: 62.23%

SMILES: Cc1cc(C#N)cc(C)c1Oc1cc(Oc2c(C)cc(C#N)cc2C)c2ccccc2n1 [Compound 5]
IC50 (μg/mL) MOLT-3 [1]: ≥50 µg/mL | IC50 (μg/mL) HuCCA-1 [2]: 35.02 ± 4.65 µg/mL (≈ 83.5 µM) | IC50 (μg/mL) HepG2 [3]: 38.67 ± 2.87 µg/mL (≈ 92.2 µM) | IC50 (μg/mL) A549 [4]: 23.28 ± 2.40 µg/mL (≈ 55.5 µM) | Inhibition rate (%) (HIV-RT kit assay) (1 μM) [5]: 40.31%

SMILES: Cc1cc(C#N)cc(C)c1Oc1cc(Nc2ccc(C#N)cc2)nc2ccccc12 [Compound 6]
IC50 (μg/mL) MOLT-3 [1]: 19.04 ± 16.02 µg/mL (≈ 48.8 µM) | IC50 (μg/mL) HuCCA-1 [2]: ≥50 µg/mL | IC50 (μg/mL) HepG2 [3]: ≥50 µg/mL | IC50 (μg/mL) A549 [4]: ≥50 µg/mL | Inhibition rate (%) (HIV-RT kit assay) (1 μM) [5]: 47.16%

SMILES: N#Cc1ccc(Nc2cc(Oc3ccc(C#N)cc3)c3ccccc3n2)cc1 [Compound 7]
IC50 (μg/mL) MOLT-3 [1]: ≥50 µg/mL | IC50 (μg/mL) HuCCA-1 [2]: ≥50 µg/mL | IC50 (μg/mL) HepG2 [3]: ≥50 µg/mL | IC50 (μg/mL) A549 [4]: ≥50 µg/mL | Inhibition rate (%) (HIV-RT kit assay) (1 μM) [5]: 39.71%

SMILES: N#Cc1ccc(Oc2cc(Nc3ccc(C#N)cn3)nc3ccccc23)cc1 [Compound 8]
IC50 (μg/mL) MOLT-3 [1]: 5.12 ± 0.41 µg/mL (≈ 14.1 µM) | IC50 (μg/mL) HuCCA-1 [2]: 8.31 ± 0.33 µg/mL (≈ 22.9 µM) | IC50 (μg/mL) HepG2 [3]: 39.96 ± 0.26 µg/mL (≈ 110 µM) | IC50 (μg/mL) A549 [4]: 5.09 ± 0.81 µg/mL (≈ 14 µM) | Inhibition rate (%) (HIV-RT kit assay) (1 μM) [5]: 27.61%

SMILES: O=C1Nc2ccc(Cl)cc2[C@@](C#CC2CC2)(C(F)(F)F)O1 [EFV, efavirenz]
EC50 [6]: 315 µM

SMILES: Cc1ccnc2c1NC(=O)c1cccnc1N2C1CC1 [NVP, nevirapine, reference compound]
inhibition at 1 µM [5]: 55.6%

SMILES: Cc1cc(/C=C/C#N)cc(C)c1Nc1ccnc(Nc2ccc(C#N)cc2)n1 [TMC278, rilpivirine, reference compound]
inhibition at 1 µM [5]: 96.5%

IC50 [3]: 0.23 ± 0.02 µg/mL | IC50 ([4]; Homo sapiens, A549, read-out: IC50 (μg/mL) A549): 0.19 ± 0.01 µg/mL
SMILES: COc1cccc2c1C(=O)c1c(O)c3c(c(O)c1C2=O)C[C@@](O)(C(=O)CO)C[C@@H]3O[C@H]1C[C@H](N)[C@H](O)[C@H](C)O1 [doxorubicin hydrochloride, reference compound]
IC50 ([2]; Homo sapiens, HuCC-A1, read-out: IC50 (μg/mL) HuCCA-1): 0.89 ± 0.04 µg/mL

IC50 ([1]; Homo sapiens, MOLT-3, read-out: IC50 (μg/mL) MOLT-3): 0.048 ± 0.007 µg/mL (≈ 0.0816 µM) | IC50 [3]: 21.1 ± 0.7 µg/mL (≈ 35.9 µM)
SMILES: COc1cc([C@@H]2c3cc4c(cc3[C@@H](O[C@@H]3O[C@@H]5CO[C@@H](C)O[C@H]5[C@H](O)[C@H]3O)[C@H]3COC(=O)[C@H]23)OCO4)cc(OC)c1O [etoposide, reference compound]
